Values quoted from earlier work as cited in paper PMC9788431, “Combination of Docking-Based and Pharmacophore-Based Virtual Screening Identifies Novel Agonists That Target the Urotensin Receptor” (Molecules, 2022).
Several values for one entry are separate records, joined by “and”; a condition that tells them apart may be missing. Equal entries are not always repeated. Non-standard residues stand in square brackets, D forms with d. Residues, ends and D or L forms follow the SMILES beside them. dTle = CC(C)(C)[C@@H](N)C(=O)O

Biological target: T1, UT receptor (Homo sapiens, UniProt Q9UKP6)
T1 construct: SNAP-tag; expressed in transfected cells; host or cells: 293A8 (HEK293A stably transfected with the UT receptor); inferred, the calcium-assay paragraph names no cells
T1 sequence (Q9UKP6 1-389): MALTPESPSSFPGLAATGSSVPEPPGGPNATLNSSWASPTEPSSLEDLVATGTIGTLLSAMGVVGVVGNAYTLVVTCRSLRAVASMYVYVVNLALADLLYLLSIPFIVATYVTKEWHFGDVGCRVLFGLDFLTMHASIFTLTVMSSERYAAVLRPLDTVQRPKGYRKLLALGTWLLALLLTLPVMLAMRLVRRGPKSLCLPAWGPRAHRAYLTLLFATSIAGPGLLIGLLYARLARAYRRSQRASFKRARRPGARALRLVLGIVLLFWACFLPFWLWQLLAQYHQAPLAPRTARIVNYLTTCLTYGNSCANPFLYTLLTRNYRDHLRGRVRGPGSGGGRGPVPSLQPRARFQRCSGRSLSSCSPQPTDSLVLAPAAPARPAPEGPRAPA
Conditions: agonist; Table S1 benchmarking ligands; ref ChEMBL database and others; cited from earlier work

Compound | EC50
COc1ccc(-c2ccc(C(=O)NC(CCN(C)C)c3ccc4ccccc4c3)cc2)cc1 (stereo not shown) [CHEMBL578654] | 105 nM
CC(C)[C@H](NC(=O)[C@H](CS)NC(=O)[C@H](Cc1ccc(O)cc1)NC(=O)[C@H](CCCCN)NC(=O)[C@H](Cc1c[nH]c2ccccc12)NC(=O)[C@H](Cc1ccccc1)NC(=O)[C@H](CS)NC(=O)[C@H](CC(=O)O)NC(=O)[C@H]1CCCN1)C(=O)O [CHEMBL216349] (H-[dP]DCFWKYCV-OH) | 3.6 nM
CN(C)CCC(NC(=O)Nc1ccc(-c2ccccc2)cc1)c1ccc(Cl)cc1 (stereo not shown) [CHEMBL206811] | 145 nM
NCCCC[C@@H]1NC(=O)[C@H](Cc2c[nH]c3ccccc23)NC(=O)[C@H](CO)NC(=O)CNC(=O)[C@@H]2CCCN2C(=O)[C@H](Cc2ccc(O)cc2)NC1=O [CHEMBL593612] (cyclo(GSWKYP)) | 8.51 nM
CN(C)CCC(OC(=O)Nc1ccc(C(F)(F)F)cc1)c1ccc(Cl)cc1 (stereo not shown) [CHEMBL203051] | 251 nM
CC(C)[C@H](NC(=O)[C@H](CS)NC(=O)[C@H](Cc1ccc(O)cc1)NC(=O)[C@H](CCCCN)NC(=O)[C@H](Cc1c[nH]c2ccccc12)NC(=O)[C@H](C)NC(=O)[C@H](CS)NC(=O)[C@H](CC(=O)O)NC(=O)[C@H]1CCCN1C(=O)[C@@H](NC(=O)[C@@H](N)CCC(=O)O)[C@@H](C)O)C(=O)O [CHEMBL2372901] (H-ET[dP]DCAWKYCV-OH) | 5.7 nM
CN(C)CCC(NC(=O)CCc1ccccc1)c1ccc2ccccc2c1 (stereo not shown) [CHEMBL229709] | 603 nM
Cc1cc2c(cc1C)C(=O)OC(CCN(C)C)(c1ccc(Cl)cc1)C2 (stereo not shown) [CHEMBL380346] | 135 nM
CN(C)CCC(OC(=O)c1ccc(-c2ccccc2)cc1)c1ccc(Cl)cc1 (stereo not shown) [CHEMBL205991] | 525 nM
CN(C)CCC(NC(=O)/C=C/c1ccc(C(F)(F)F)cc1)c1ccc2ccccc2c1 (stereo not shown) [CHEMBL229713] | 135 nM
C[C@H](NC(=O)[C@H](CS)NC(=O)[C@H](Cc1ccc(O)cc1)NC(=O)[C@H](CCCCN)NC(=O)[C@H](Cc1c[nH]c2ccccc12)NC(=O)[C@H](Cc1ccccc1)NC(=O)[C@H](CS)NC(=O)[C@H](CC(=O)O)NC(=O)[C@H]1CCCN1C(=O)[C@@H](NC(=O)[C@@H](N)CCC(=O)O)[C@@H](C)O)C(=O)O [CHEMBL2372907] (H-ET[dP]DCFWKYCA-OH) | 3.2 nM
CN(C)CCCC(NC(=O)c1ccc(-c2ccccc2)cc1)c1ccc(Cl)cc1 (stereo not shown) [CHEMBL576746] | 316 nM
CC(C)[C@H](NC(=O)[C@H](CS)NC(=O)[C@H](Cc1ccc(O)cc1)NC(=O)[C@H](CCCCN)NC(=O)[C@@H](Cc1c[nH]c2ccccc12)NC(=O)[C@H](Cc1ccccc1)NC(=O)[C@H](CS)NC(=O)[C@H](CC(=O)O)NC(=O)[C@H]1CCCN1C(=O)[C@@H](NC(=O)[C@@H](N)CCC(=O)O)[C@@H](C)O)C(=O)O [CHEMBL385962] | 3.8 nM
CN(C)CC[C@@H](NC(=O)c1ccc(-c2ccc(Cl)cc2)cc1)c1ccc2ccccc2c1 [CHEMBL573640] | 457 nM
CN(C)CCC(OC(=O)Nc1ccc2ccccc2c1)c1ccc(Cl)cc1 (stereo not shown) [CHEMBL203937] | 525 nM
C=CCN(CC=C)c1ccc2c(c1)CC(CCN(C)C)(c1ccc(Cl)cc1)OC2=O (stereo not shown) [CHEMBL1173081] | 724 nM
CN(C)CCC(NC(=O)Nc1ccc2ccccc2c1)c1ccc(Cl)cc1 (stereo not shown) [CHEMBL206551] | 288 nM
COc1ccc(-c2cccc(C(=O)NC(CCN(C)C)c3ccc4ccccc4c3)c2)cc1 (stereo not shown) [CHEMBL573574] | 646 nM
CN(C)CCC(NC(=O)/C=C/c1ccc(C(F)(F)F)cc1)c1ccc(Cl)cc1 (stereo not shown) [CHEMBL228470] | 129 nM
NCCCN1N=C(CCc2nc3ccccc3s2)c2ccccc2N(Cc2ccc3ccccc3c2)C1=O [CHEMBL4076150] | 6.17 nM and 10.7 nM
CN(C)CCC(NC(=O)c1ccc(-c2ccccc2)cc1)c1ccc2ccccc2c1 (stereo not shown) [CHEMBL574527] | 120 nM
Cc1cc2c(cc1C)CC(CCN(C)C)(c1ccc(Cl)cc1)OC2 (stereo not shown) [CHEMBL1173492] | 692 nM
CN(C)CCC(NC(=O)/C=C/c1ccccc1)c1ccc(Cl)cc1 (stereo not shown) [CHEMBL374817] | 427 nM
CN(C)CCC(NC(=O)Cc1ccc(C(F)(F)F)cc1)c1ccc2ccccc2c1 (stereo not shown) [CHEMBL390792] | 575 nM
COc1ccc(/C=C/C(=O)NC(CCN(C)C)c2ccc3ccccc3c2)cc1 (stereo not shown) [CHEMBL229714] | 380 nM
CN(C)CCC(NC(=O)CCc1ccc(C(F)(F)F)cc1)c1ccc2ccccc2c1 (stereo not shown) [CHEMBL229710] | 372 nM

Compound | EC50
COc1ccc(-c2ccc(C(=O)NC(CCN(C)C)c3ccc(Cl)cc3)cc2)cc1 (stereo not shown) [CHEMBL573569] | 74.1 nM
CSCC[C@H](NC(=O)CNC(=O)[C@@H](NC(=O)CNC(=O)[C@@H](NC(=O)[C@H](NC(=O)[C@H](CC(N)=O)NC(=O)[C@H](CCCNC(=N)N)NC(=O)[C@H](Cc1ccccc1)NC(=O)[C@@H](N)CO)C(C)(C)C)C(C)C)[C@@H](C)O)C(=O)N[C@@H](CCCCN)C(=O)N[C@@H](CCCCN)C(=O)N[C@H](C(=O)N[C@@H](CO)C(=O)N[C@@H](Cc1ccccc1)C(=O)N[C@@H](CCC(N)=O)C(=O)N[C@@H](CCCNC(=N)N)C(=O)N[C@@H](C)C(=O)N[C@@H](CCCCN)C(=O)N[C@@H](CO)C(=O)O)[C@@H](C)O [CHEMBL1627325] (H-SFRN[dTle]VGTGMKKTSFQRAKS-OH) | 3.47 nM
CN(C)CCC(NC(=O)c1ccc(C(F)(F)F)cc1)c1ccc(Cl)cc1 (stereo not shown) [CHEMBL204988] | 77.6 nM
NCCCC[C@H](NC(=O)[C@H](Cc1c[nH]c2ccccc12)NC(=O)[C@H](Cc1ccccc1)NC(=O)[C@@H](N)CS)C(=O)N[C@@H](Cc1ccc(O)cc1)C(=O)N[C@@H](CS)C(N)=O [CHEMBL298803] (H-CFWKYC-NH2) | 2.3 nM
Cc1cc2c(cc1C)CC(CCN(C)C)(c1ccc3ccccc3c1)OC2 (stereo not shown) [CHEMBL1172223] | 263 nM
CN(C)CCC1(c2ccc(Cl)c(Cl)c2)Cc2ccccc2C(=O)O1 (stereo not shown) [CHEMBL1172763] | 676 nM
CN(C)CCC(NC(=O)Nc1ccc(Oc2ccccc2)cc1)c1ccc(Cl)cc1 (stereo not shown) [CHEMBL383698] | 110 nM
CC(C)[C@H](NC(=O)[C@H](CS)NC(=O)[C@H](Cc1ccc(O)cc1)NC(=O)[C@H](CCCCN)NC(=O)[C@H](Cc1c[nH]c2ccccc12)NC(=O)[C@H](Cc1ccccc1)NC(=O)[C@H](CS)NC(=O)[C@H](CC(=O)O)NC(=O)[C@H]1CCCN1C(=O)[C@H](C)NC(=O)[C@@H](N)CCC(=O)O)C(=O)O [CHEMBL2372902] (H-EA[dP]DCFWKYCV-OH) | 3.3 nM
CN(C)CCC(NC(=O)/C=C/c1ccccc1)c1ccc2ccccc2c1 (stereo not shown) [CHEMBL387694] | 589 nM
CN(C)CC[C@H](NC(=O)c1ccc(-c2ccc(Cl)cc2)cc1)c1ccc2ccccc2c1 [CHEMBL573392] | 22.9 nM
NCCCC[C@@H]1NC(=O)[C@H](Cc2c[nH]c3ccccc23)NC(=O)[C@H](Cc2ccccc2)NC(=O)CNC(=O)[C@@H]2CCCN2C(=O)[C@H](Cc2c[nH]c3ccccc23)NC1=O [CHEMBL608098] (cyclo(FWKWPG)) | 20.6 nM
CN(C)CCC(NC(=O)c1ccc(Oc2ccccc2)cc1)c1ccc(Cl)cc1 (stereo not shown) [CHEMBL203626] | 66.1 nM
COc1ccc(/C=C/C(=O)NC(CCN(C)C)c2ccc(Cl)cc2)cc1 (stereo not shown) [CHEMBL387661] | 513 nM
CN(C)CCC(NC(=O)c1ccc(-c2ccccc2)cc1)c1ccc(Cl)cc1 (stereo not shown) [CHEMBL583981] | 77.6 nM
CN(C)CC[C@H](NC(=O)c1ccc(-c2ccccc2)cc1)c1ccc(Cl)cc1 [CHEMBL207823] | 32.4 nM
CO[C@@H](C(=O)N[C@@H](CCN(C)C)c1ccc2ccccc2c1)c1ccccc1 [CHEMBL572454] | 741 nM
CC(C)[C@H](NC(=O)[C@H](CS)NC(=O)[C@H](Cc1ccc(O)cc1)NC(=O)[C@H](CCCCN)NC(=O)[C@H](Cc1c[nH]c2ccccc12)NC(=O)[C@H](Cc1ccccc1)NC(=O)[C@H](CS)NC(=O)[C@H](CC(=O)O)NC(=O)[C@H](C)NC(=O)[C@@H](NC(=O)[C@@H](N)CCC(=O)O)[C@@H](C)O)C(=O)O [CHEMBL2372897] (H-ETADCFWKYCV-OH) | 1.9 nM
NCCCC[C@@H]1NC(=O)[C@H](Cc2c[nH]c3ccccc23)NC(=O)[C@H](CO)NC(=O)CNC(=O)[C@@H]2CCCN2C(=O)[C@H](Cc2c[nH]c3ccccc23)NC1=O [CHEMBL608099] (cyclo(GSWKWP)) | 16.7 nM
CC(C)[C@H](NC(=O)[C@H](CS)NC(=O)[C@H](Cc1ccc(O)cc1)NC(=O)[C@H](CCCCN)NC(=O)[C@H](Cc1c[nH]c2ccccc12)NC(=O)[C@H](Cc1ccccc1)NC(=O)[C@@H](N)CS)C(=O)O [CHEMBL53181] (H-CFWKYCV-OH) | 1.8 nM
Cc1ccc(C(CCN(C)C)NC(=O)c2ccc(-c3ccccc3)cc2)cc1 (stereo not shown) [CHEMBL572398] | 200 nM
CN(C)CCC(NC(=O)Nc1ccc(C(F)(F)F)cc1)c1ccc(Cl)cc1 (stereo not shown) [CHEMBL425592] | 117 nM
Cc1cc2c(cc1C)C(=O)OC(CCN(C)C)(c1ccc3ccccc3c1)C2 (stereo not shown) [CHEMBL1173399] | 148 nM
Cc1cc(C)c(C(=O)OC(CCN(C)C)c2ccc(Cl)cc2)cc1C (stereo not shown) [CHEMBL206832] | 468 nM
NCCCC[C@@H]1NC(=O)[C@H](Cc2c[nH]c3ccccc23)NC(=O)[C@H](Cc2ccc(O)cc2)NC(=O)CNC(=O)[C@@H]2CCCN2C(=O)[C@H](Cc2ccc(O)cc2)NC1=O [CHEMBL607810] (cyclo(GYWKYP)) | 12.6 nM
C[C@@H](O)[C@H](NC(=O)[C@@H](N)CCC(=O)O)C(=O)N1CCC[C@@H]1C(=O)N[C@@H](CC(=O)O)C(=O)N[C@@H](CS)C(=O)N[C@@H](Cc1ccccc1)C(=O)N[C@@H](Cc1c[nH]c2ccccc12)C(=O)N[C@@H](CCCCN)C(=O)N[C@@H](Cc1ccc(O)cc1)C(=O)N[C@@H](CS)C(=O)O [CHEMBL385616] (H-ET[dP]DCFWKYC-OH) | 1.8 nM
CN(C)CCC(OC(=O)Nc1ccc(Oc2ccccc2)cc1)c1ccc(Cl)cc1 (stereo not shown) [CHEMBL383326] | 191 nM
